In the supplement of paper PMC10307832:

Key:
Assay in all cases: relative viability (nuclei count vs DMSO), 5 days (fraction); higher = more cells survive
QS11 = compound: C1CC2=C(C1)C=C(C=C2)OC3=NC(=C4C(=N3)N(C=N4)CC5=CC=C(C=C5)C6=CC=CC=C6)N[C@@H](CC7=CC=CC=C7)CO [QS11]
Outline: (§1)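 Lung cancer cell lines were seeded into 1536-well plates, kept overnight at 37 °C and pinned with five library-drug doses (not always all listed) spaced by √10. After 5 days, nuclei were Hoechst-stained, imaged at 4× and counted with MetaXpress. Viability is treated-well nuclei over vehicle-well nuclei, taken as a median across plates. Plates needed control CV below 25% and at least one doubling.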

AZ628 = compound: CC1=C(C=C(C=C1)NC(=O)C2=CC(=CC=C2)C(C)(C)C#N)NC3=CC4=C(C=C3)N=CN(C4=O)C [AZ628]
Outline: as §1

Darinaparsin = compound: C[As](C)SC[C@H](NC(=O)CC[C@H](N)C(=O)O)C(=O)NCC(=O)O [Darinaparsin]
Outline: as §1

QS11 + Alpelisib = compound: C1CC2=C(C1)C=C(C=C2)OC3=NC(=C4C(=N3)N(C=N4)CC5=CC=C(C=C5)C6=CC=CC=C6)N[C@@H](CC7=CC=CC=C7)CO [QS11] + Cc1nc(NC(=O)N2CCC[C@H]2C(N)=O)sc1-c1ccnc(C(C)(C)C(F)(F)F)c1 [Alpelisib] (partner 2 µM)
Outline: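 Nuclei were stained with Hoechst during a one-step fixation (final 0.05% Triton X-100, 1% formaldehyde, 1 ug/ml Hoechst) carried out 5 days after dosing, then counted on 4× images. The cells, lung cancer lines in 1536-well plates, had been dosed by pin tool the day after seeding with one drug alone or a fixed anchor-drug dose plus five library-drug doses (not always all listed) in √10 steps. Relative viability is the nuclei count in treated wells divided by that in vehicle wells, and each value is the median of duplicate plates.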

Row | Cell Line | relative viability (QS11; 0.08 µM) | relative viability (QS11; 0.253 µM) | relative viability (QS11; 0.8 µM) | relative viability (QS11; 2.53 µM) | relative viability (QS11; 8 µM) | relative viability (AZ628; 0.08 µM) | relative viability (AZ628; 0.253 µM) | relative viability (AZ628; 0.8 µM) | relative viability (AZ628; 2.53 µM) | relative viability (AZ628; 8 µM) | relative viability (Darinaparsin; 0.08 µM) | relative viability (Darinaparsin; 0.8 µM) | relative viability (Darinaparsin; 2.53 µM) | relative viability (Darinaparsin; 8 µM) | relative viability (QS11 + Alpelisib; first compound 0.08 µM) | relative viability (QS11 + Alpelisib; first compound 0.253 µM) | relative viability (QS11 + Alpelisib; first compound 0.8 µM) | relative viability (QS11 + Alpelisib; first compound 2.53 µM) | relative viability (QS11 + Alpelisib; first compound 8 µM)
1 | NCI-H2023 | 1.04 | 0.987 | 0.895 | 1.09 | 0.805 | 1.11 | 1.03 | 0.974 | 0.915 | 0.674 | 1.08 | 0.952 | 0.992 | 1.23 | 0.678 | 0.597 | 0.619 | 0.747 | 0.722
2 | PC-3 [JPC-3] | 0.965 | 1.04 | 0.956 | 1.04 | 1.02 | 1.05 | 1.06 | 1.16 | 1.11 | 0.951 | 1.14 | 1.06 | 1.05 | 1.08 | 1.07 | 0.998 | 1.1 | 1.05 | 1.03
3 | LXF-289 | 1 | 1.04 | 0.732 | 0.902 | 0.809 | 1 | 0.986 | 0.906 | 0.98 | 0.722 | 1.04 | 0.994 | 0.941 | 1.13 | 1.07 | 1.05 | 0.764 | 0.906 | 0.85
4 | NCI-H1437 | 0.965 | 1.02 | 0.752 | 0.901 | 0.929 | 0.988 | 0.938 | 0.858 | 1.01 | 1.01 | 1.08 | 1.02 | 0.973 | 1.21 | 1.1 | 1.13 | 0.834 | 0.9 | 0.879
5 | NCI-H838 | 0.99 | 0.915 | 0.784 | 0.908 | 0.872 | 1.02 | 0.992 | 0.951 | 0.932 | 0.868 | 0.997 | 0.931 | 0.991 | 1.14 | 1.1 | 0.954 | 0.755 | 0.919 | 0.884
6 | NCI-H1703 | 0.94 | 0.908 | 0.901 | 1.04 | 0.923 | 0.597 | 0.395 | 0.32 | 0.303 | 0.245 | 1.43 | 1.09 | 0.889 | 1.07 | 0.322 | 0.409 | 0.32 | 0.331 | 0.446
7 | NCI-H1563 | 0.951 | 1.02 | 0.965 | 1.12 | 0.971 | 0.997 | 0.925 | 0.991 | 0.952 | 1.05 | 1.05 | 0.948 | 0.996 | 1.04 | 0.902 | 0.931 | 1.02 | 0.831 | 0.749
8 | NCI-H650 | 0.841 | 0.908 | 1.01 | 0.932 | 0.89 | 1.13 | 1.05 | 1.3 | 1.1 | 1.26 | 0.988 | 1.01 | 0.967 | 0.947 | 0.988 | 1 | 1.14 | 0.909 | 1.18
9 | LK-2 | 0.99 | 1.21 | 1.09 | 0.956 | 1.3 | 1.29 | 0.983 | 0.977 | 0.857 | 0.467 | 1.16 | 0.83 | 0.982 | 1.26 | 1.01 | 1.15 | 1.21 | 0.868 | 1.59
10 | NCI-H520 | 0.864 | 1.04 | 1.12 | 1.11 | 1.14 | 1.06 | 0.994 | 0.937 | 0.937 | 0.878 | 1.12 | 0.947 | 0.833 | 1.09 |  | 0.912 | 0.921 | 0.92 | 0.986
11 | H3255 | 0.947 | 1.01 |  | 1.01 | 1.08 | 0.996 | 0.908 | 0.975 | 1.02 | 0.693 | 1.02 | 1.01 | 0.896 | 1.01 | 0.782 | 0.773 |  | 0.671 | 0.903
12 | PC-14 | 0.821 | 1.06 | 0.888 | 1.04 | 0.895 | 1.07 | 0.938 | 0.907 | 0.959 | 0.674 | 1.05 | 0.97 | 1.02 | 1.22 | 1.08 | 0.982 | 0.911 | 1.01 | 1.02
13 | HCC-78 | 0.958 | 0.955 | 0.94 | 1.03 | 1.05 | 1.09 | 0.911 | 1.08 | 1.05 | 0.932 | 1 | 0.918 | 0.936 | 1.09 | 0.411 | 0.31 | 0.401 | 0.43 | 0.321
14 | CAL-12T | 0.96 | 0.986 | 0.96 | 0.908 | 0.873 | 0.987 | 0.831 | 0.81 | 0.806 | 0.685 | 1.15 | 1 | 0.985 | 1.11 | 1.28 | 1.13 | 1.25 | 0.952 | 1.06
15 | NCI-H3122 | 1.03 | 1.07 |  | 1.11 | 0.972 | 0.956 | 0.736 | 0.648 | 0.598 | 0.403 | 1.06 | 1.01 | 1.01 | 1.16 | 0.879 | 1 | 0.745 | 1.12 | 0.839
16 | NCI-H596 | 0.931 | 0.833 | 1.15 | 0.969 | 1.09 | 1.05 | 1.03 | 1.1 | 1.06 | 1.01 | 0.937 | 1.05 | 0.938 | 1.05 | 0.4 | 0.494 | 0.467 | 0.468 | 0.443
17 | NCI-H661 | 0.992 | 0.977 | 0.853 | 1.01 | 1.03 | 1.08 | 1.05 | 0.861 | 0.938 | 0.842 | 0.999 | 1.01 | 1.03 | 1.12 | 0.657 | 0.599 | 0.658 | 0.637 | 0.646
